Tested on: acute lung injury plus hyperthermia, CD-1 mice
Experiment: mouse acute lung injury plus hyperthermia model
Type: in vivo
Protocol: This example provides results of a study to evaluate the effect of denatonium acetate in a mouse acute lung injury plus hyperthermia model. The procedure was three groups of CD-1 mice given (1) saline by gavage for oral administration BID, (2) DA administered oral at a dose of 92.4 mg/kg BID and (3) was DA iv at 3 mg/kg iv bolus QD. Lung lavage fluid was measured and cytokine analysis. Statistics was one-way ANOVA followed by Tukey's multiple comparison post hoc test for data with normal distribution; Kruskal-Wallis test followed by Dunn's multiple comparison post hoc test for data with skewed distribution; and the ROUT method for identifying outliers. Control or drug administered for 3 days, then LPS at 50 μL of 1 mg/ml delivered intratracheally with a Penn Century needle where a core temperature of 39 C at 24 hours post LPS and then sacrifice to measure lung lavage fluid protein concentration and serum cytokine levels.

## CC(=O)[O-].CC[N+](CC)(CC(=O)Nc1c(C)cccc1C)Cc1ccccc1 [DA, denatonium acetate]
Iv 3 mg/kg bolus QD
  protein concentration in lung lavage fluid: drastic but not significantly reduced
Oral 92.4 mg/kg BID
  protein concentration in lung lavage fluid: drastic but not significantly reduced

— patent US20220193013A1, “Pharmaceutical Composition for Treatment or Prevention of Multiple Inflammatory Disorders” (priority 2020, published 2022)
